Experimental data taken from US20140315717A1 (priority 2006, published 2014).
Values joined by “and” are separate entries in the source; they are usually repeats but may differ in a detail not shown here. Identical values can stand only once. Like-named read-outs stand apart in the source and are kept apart here.

How the values were obtained:
[1] = tested on: PR-2, i.e., β-1,3-glucanase; assay: Induction of PR-2 mRNA (northern blot) in DMO soybean after spraying; format: in vivo; conditions: for induction of PR2 at various rates: 0.25, 0.5 and 1 lb/acre, 24 hrs after treatment, two independent transgenic soybean lines, FIG. 2
Description: (§1) Transgenic and control soybean seeds (cultivars Thorne, NE3001, A3525) were planted into 3.5-inch square plastic pots containing Redi-Earth™ (Scotts-Sierra Horticultural Products Co., Marysville, Ohio). The pots were placed on capillary matting in 35 inch×60 inch fiberglass watering trays for overhead and/or sub-irrigation for the duration of the test period so as to maintain optimum soil moisture for plant growth and were fertilized with Osmocote® (14-14-14 slow release; Scotts-Sierra Horticultural Products Co., Marysville, Ohio) at the rate of 100 gm/cu. ft. to sustain plant growth for the duration of greenhouse trials.
(§2) A 14 hour minimum photoperiod was provided with supplemental light at about 600 μE (micro-Einsteins) as needed. Trials were established in a randomized block design randomized by rate with 4 to 6 replications of each treatment.
(§3) All herbicide applications were made with the track sprayer using a Teejet® 9501E flat fan nozzle (Spraying Systems Co, Wheaton, Ill.) with air pressure set at a minimum of 24 psi (pounds per square inch), or 165 kpa (kilopascals)). The spray nozzle was kept at a height of about 16 inches above the top of plant material for spraying. The spray volume was 10 gallons per acre or 93 liters per hectare. Applications were made when plants had reached V-3 stage.
Leaf samples were harvested after 0, 3, 8, 24, 48, 72 hrs after treatment (HAT) and frozen for further analysis. […] RNA was extracted and analyzed by northern blot analysis using PR-2, i.e., β-1,3-glucanase as a probe.

[2] = tested on: Pythium ultimum; assay: Pythium ultimum inoculation of sprayed cotton seedlings; format: in vivo; conditions: cotton plants contacted with 3,6-DCSA; untreated plants are killed
Method: Ten-day old Roundup Ready® Flex Cotton (Event MON 88913; U.S. Publ. 20060059590) seedlings were sprayed with a mixture of Roundup Weather Max® (Monsanto, St. Louis, Mo.) and 3,6-DCSA (BASF). The control plants were sprayed with water only. The cotton seedlings from both treatments were inoculated with Pythium ultimum by dipping seedling into inoculum slurry, 24 hours after the spray application. The positive control plants were neither sprayed nor inoculated with P. P. ultimum. […] Cotton plants treated with Roundup® and DCSA were as healthy as were the plants not inoculated with P. ultimum.

[3] = tested on: Xanthomonas campestris pv. malvacearum; assay: Bacterial blight tooth pick inoculation of sprayed cotton plants; format: in vivo; conditions: two-week old cotton, DCSA sprayed about 24 hours before inoculation, FIG. 4
Method: In this example, two-week old cotton plants were sprayed with DCSA while control plants received spray application of water only. The plants were inoculated with bacterial blight pathogen (Xanthomonas campestris pv. malvacearum) about 24 hours after the DCSA spray application using a tooth pick inoculation method. As shown in the FIG. 4, the cotton plants inoculated with the bacterial pathogen but not sprayed with DCSA developed necrotic spots, typical symptoms of bacterial blight. […] The results of this experiment indicate that DCSA application reduced bacterial infection on cotton plants when inoculated with bacterial pathogen 24 hours after the DCSA spray.

[4] = tested on: soybean plants; format: in vivo
Description: as §1, §2, §3
For this example, the plants were grown as described in the above example. Transgenic and non transgenic soybean plants carrying the DMO gene in their genome were either treated with Paraquat (Gramoxone®; Syngenta) to create oxidative stress or with dicamba followed by Paraquat at V3 stage. The dicamba rate was 1 lb/acre or 1120 g ae/ha. Paraquat was applied at 30, 70, or 200 g ae/ha. Plants were then evaluated for paraquat injury by visually assessing injury at a particular day after treatment (DAT) for injury on a scale of 0 to 100 percent relative to untreated control plants, with zero representing “no” injury and 100% representing “complete” injury or death. Data were collected and analyzed using suitable statistical methods.
In another experiment, the effect of externally applied DCSA was tested for its benefit in protecting soybean plants from oxidative stress injury caused by Paraquat. Different amounts of DCSA were applied 24 hrs before applying Paraquat to test any correlation between the amount of DCSA applied and the extent of protection obtained from oxidative stress measured in terms of reduction in % injury as described above. Different levels of dicamba were also applied separately to test the same hypothesis.

[5] = tested on: cotton plants; assay: Paraquat (Gramoxone) oxidative stress injury in cotton, visual % injury; format: in vivo; conditions: for Percentage injury: 2 DAT, DCSA where applied 1 lb/acre 24 hours before
Method: Four different cotton cultivars as indicated in Table 3 were grown in 4-inch pots for two weeks. These cotton plants were either sprayed with DCSA (BASF) at the 1 lb/A rate, or unsprayed (no DCSA application, as control). Experimental plants (treated with DCSA and untreated) were sprayed with Paraquat (Gramoxone®; Syngenta) at 30 gm/ha, 70 gm/ha, and 100 gm/ha rates, 24 hours after the application of DCSA, to simulate oxidative stress. […] The same experiment was repeated at two different growth stages of cotton (2 nodes stage and 5 nodes stage).

[6] = tested on: Root Knot Nematode (RKN; Meloidogyne incognita); assay: Control of cotton root knot nematode in cotton plants (ST474); format: in vivo; conditions: RKN + DCSA
Method: DCSA was unexpectedly found to control gall formation, improve plant height and reduce number of eggs produced by the nematode in cotton plants (ST474) (Table 5). Ten to fourteen days old cotton plants were treated with DCSA at the rate of […], 24 hrs before inoculating them with RKN eggs. […] Plant height, gall rating, and egg counts were measured 45 days after inoculation. The gall rating scale was 0-5 with 0=no visible galling and 5=heavy galling.

[7] = tested on: Verticillium dahliae; assay: Protection of cotton against Verticillium wilt, seedling dipping inoculation; format: in vivo; conditions: for Plant survival rating (out of 10) / Severity rating (1-9): cotton ST6611, DCSA 1 lb/A, glyphosate 0.75 lb/A 24 hours before inoculation; for Severity rating (1-9): 1 healthy, 9 dead
Description: DCSA was unexpectedly found to provide protection to cotton plants against Verticillium dahliae, causal agent of cotton wilt disease (Table 6). Cotton plants of the variety ST6611, BOLLGARD 2, ROUNDUP READY FLEX, were inoculated with a moderate isolate (DPL) or a virulent isolate (King) of Verticillium by a seedling dipping method. Seedlings at the first true leaf stage were taken out from the pots, one inch of roots were cut off, seedlings were dipped in a spore slurry for one minute, and then transplanted back in the pots. These strains were isolated and provided by Dr. Terry Wheeler (Texas A&M University, TX USA). DCSA was applied at the rate of 1 lb/A and glyphosate (ROUNDUP WEATHERMAX, Monsanto) at the rate of 0.75 lb/A 24 hours before inoculation. Protection against Verticillium was measured on a disease severity scale of 1-9: 1 being healthy and 9 being dead because of disease, and also was measured as the number of plants that survived out of 10 inoculated plants.

[8] = tested on: soybean; conditions: DMO transgenic soybean, dicamba 1.5 lb ae/acre Pre and/or Post (V3-4), in 4/5 events and 13/15 treatments, FIG. 6
Method: The yield enhancing-benefit of DSCA was tested by growing non-transgenic and transgenic plants and applying dicamba to transgenic plants and harvesting the seeds. Non-transgenic and transgenic soybean seeds were planted near the beginning of the growing season in several locations at the time of best possible growth conditions such as soil moisture, temperature, and seeding depth. […] In all, 240 plots were planted at 6 locations (40 per location).
Four non-transgenic border rows were planted all around the trial using a known commercial line such as A3525. Optimum production and management practices known in the art were followed. Maximum pest control and disease control was practiced as needed to prevent confounding effects of dicamba applications. The field was irrigated as needed according to standard practices.

[9] = individual cotton plants 1-8, DCSA 24 hrs before inoculation, 45 days after inoculation
[10] = Verticillium isolate DPL (moderate)
[11] = Verticillium isolate King (virulent)

## O=C(O)c1c(Cl)ccc(Cl)c1O [DCSA, 3,6-dichloro salicylic acid]
[1]
  induction of PR2 at various rates: induction of PR2
[2]
  survival of cotton plants after inoculation with Pythium ultimum: survive inoculation
[3]
  bacterial blight symptoms: only localized lesions (HR response) and no increase in bacterial blight symptoms
[4]; event 469-13-19, 280 g/ha of Dicamba or DCSA followed by 100 g ae/ha of paraquat
  % injury at 5 DAT: 50.83%
[4]; event 469-13-19, 561 g/ha of Dicamba or DCSA followed by 100 g ae/ha of paraquat
  % injury at 5 DAT: 48.33%
[4]; event 469-13-19, 1120 g/ha of Dicamba or DCSA followed by 100 g ae/ha of paraquat
  % injury at 5 DAT: 43.33%
[4]; in vivo
  % injury at 5 DAT: 66.67% and 53.33% and 49.17%
[4]; transgenic soybean, applied 24 hrs before Paraquat, reduction in injury increased with rate
  protection against oxidative stress caused by subsequently applied paraquat: provided protection against oxidative stress
[5]; four varieties of RR cotton pretreated with DCSA (24 hours), two nodes stage and 5 nodes stage
  Gramoxone injury: reduced significantly
[6]; individual cotton plants 1-8, 45 days after inoculation, 0=no visible galling, 5=heavy galling
  RKN Gall Rating (0-5): 0 (4×) and 2 and 1 (3×)
[6]; [9]
  Egg Count/pot: 5,200 and 1,800 and 2,200
  Plant Height: 25.4 cm (3×) and 22.2 cm and 17.8 cm and 14.0 cm and 15.9 cm and 12.7 cm
[6]; mean of 8 cotton plants, 45 days after inoculation
  Plant Height, Mean: 19.8 cm
[6]; mean of 8 cotton plants, 45 days after inoculation, 0=no visible galling, 5=heavy galling
  RKN Gall Rating (0-5), Mean: 0.6
[7]; [10]
  Plant survival rating (out of 10): 10
  Severity rating (1-9): 1
[7]; [11]
  Plant survival rating (out of 10): 10
  Severity rating (1-9): 2
[7]; cotton, isolates DPL and King, DCSA 1 lb/A 24 hours before inoculation
  protection against Verticillium: provided protection against both moderate and strong isolates of Verticillium dahliae

## COc1c(Cl)ccc(Cl)c1C(=O)O [Dicamba, 3,6-dichloro-2-methoxybenzoic acid]
[1]
  induction of PR2 at various rates: induction of PR2
[1]; DMO soybean, dicamba (Clarity) 1 lb/acre at Post-V3, leaf samples 0-72 HAT, FIG. 1
  induction of PR2 at various time points: induction of PR2
[4]; in vivo
  % injury at 5 DAT: 65.00% and 54.17% and 45.83% and 51.67% and 40.83%
  Paraquat injury: significantly reduced Paraquat injury
  protection against oxidative stress caused by subsequently applied paraquat: provided protection against oxidative stress
[8]
  yield relative to unsprayed controls: an increase or equivalent yield to unsprayed controls

## O=C(O)CNCP(=O)(O)O [Glyphosate, N-phosphonomethylglycine, reference compound]
[7]; [10]
  Plant survival rating (out of 10): 10
  Severity rating (1-9): 2
[7]; [11]
  Plant survival rating (out of 10): 10
  Severity rating (1-9): 3.5

## C[n+]1ccc(-c2cc[n+](C)cc2)cc1 [Paraquat]
[4]; N3001 (non-transgenic) soybean, paraquat 200 g ae/ha, V-3 stage, 4 DAT
  % injury: 75%
[4]; transgenic event 462-1-21, paraquat 100 g ae/ha alone
  % injury at 5 DAT Paraquat alone control: 75.83%
[4]; transgenic event 469-13-19, paraquat 100 g ae/ha alone
  % injury at 5 DAT Paraquat alone control: 77.50%
[4]; transgenic soybean plants contacted with Paraquat alone
  injury rate: about 75%
[5]; cotton ST3273B2RF, Gramoxone 30 g a.i./ha
  Percentage injury: 35%
[5]; cotton ST3273B2RF, Gramoxone 70 g a.i./ha
  Percentage injury: 50%
[5]; cotton ST3273B2RF, Gramoxone 100 g a.i./ha
  Percentage injury: 50%
[5]; cotton ST4575BR, Gramoxone 100 g a.i./ha
  Percentage injury: 65%
[5]; cotton ST4646B2RF, Gramoxone 100 g a.i./ha
  Percentage injury: 70%
[5]; cotton ST6622RF, Gramoxone 70 g a.i./ha
  Percentage injury: 50%
[5]; cotton ST6622RF, Gramoxone 100 g a.i./ha
  Percentage injury: 70%
